# Reference: ChEMBL document CHEMBL1157348, “The alkaloid conessine and analogues as potent histamine H3 receptor antagonists” (J Med Chem, 2008)
# Legend:
# [1] = target: T1, Glucocorticoid receptor (Homo sapiens, UniProt P04150); test: Binding affinity at glucocorticoid receptor
# T1 sequence (P04150 whole entry): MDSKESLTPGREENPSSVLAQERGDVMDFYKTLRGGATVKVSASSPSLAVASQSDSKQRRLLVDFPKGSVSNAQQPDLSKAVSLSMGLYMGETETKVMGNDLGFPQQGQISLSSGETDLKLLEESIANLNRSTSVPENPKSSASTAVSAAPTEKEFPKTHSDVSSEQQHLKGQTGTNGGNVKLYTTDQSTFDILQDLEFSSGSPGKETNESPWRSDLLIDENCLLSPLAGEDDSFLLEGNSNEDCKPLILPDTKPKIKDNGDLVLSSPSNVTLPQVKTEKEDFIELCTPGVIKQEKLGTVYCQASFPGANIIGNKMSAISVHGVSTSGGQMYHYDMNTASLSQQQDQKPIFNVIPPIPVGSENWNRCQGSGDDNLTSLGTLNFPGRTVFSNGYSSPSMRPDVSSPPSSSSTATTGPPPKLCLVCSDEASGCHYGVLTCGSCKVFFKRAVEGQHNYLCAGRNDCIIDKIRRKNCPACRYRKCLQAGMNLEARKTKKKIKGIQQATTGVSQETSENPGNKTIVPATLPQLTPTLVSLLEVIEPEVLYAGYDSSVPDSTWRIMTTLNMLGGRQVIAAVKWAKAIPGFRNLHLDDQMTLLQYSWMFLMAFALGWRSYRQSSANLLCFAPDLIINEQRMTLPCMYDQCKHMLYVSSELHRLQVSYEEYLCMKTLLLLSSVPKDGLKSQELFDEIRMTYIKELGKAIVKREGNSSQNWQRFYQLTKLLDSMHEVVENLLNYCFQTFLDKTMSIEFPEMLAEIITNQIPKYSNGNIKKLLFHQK
# [2] = system: Phospholipidosis; test: In vitro phospholipidosis index at 6.25 uM compared to amiodarone at 10 uM; format: ADME, cell-based, Hepatocyte; conditions: hepatocytes
# [3] = target: T2, Histamine H3 receptor (Homo sapiens, UniProt Q9Y5N1); test: Antagonist activity at H3 receptor assessed as inhibition of forskolin-induced cAMP release by SPA; format: functional
# [4] = target: Histamine H2 receptor (Homo sapiens, UniProt P25021); test: Displacement of [3H]tiotidine from human histamine H2 receptor; conditions: read-out: Ki
# [5] = target: T3, Androgen receptor (Homo sapiens, UniProt P10275); test: Binding affinity at androgen receptor
# T3 sequence (P10275 whole entry): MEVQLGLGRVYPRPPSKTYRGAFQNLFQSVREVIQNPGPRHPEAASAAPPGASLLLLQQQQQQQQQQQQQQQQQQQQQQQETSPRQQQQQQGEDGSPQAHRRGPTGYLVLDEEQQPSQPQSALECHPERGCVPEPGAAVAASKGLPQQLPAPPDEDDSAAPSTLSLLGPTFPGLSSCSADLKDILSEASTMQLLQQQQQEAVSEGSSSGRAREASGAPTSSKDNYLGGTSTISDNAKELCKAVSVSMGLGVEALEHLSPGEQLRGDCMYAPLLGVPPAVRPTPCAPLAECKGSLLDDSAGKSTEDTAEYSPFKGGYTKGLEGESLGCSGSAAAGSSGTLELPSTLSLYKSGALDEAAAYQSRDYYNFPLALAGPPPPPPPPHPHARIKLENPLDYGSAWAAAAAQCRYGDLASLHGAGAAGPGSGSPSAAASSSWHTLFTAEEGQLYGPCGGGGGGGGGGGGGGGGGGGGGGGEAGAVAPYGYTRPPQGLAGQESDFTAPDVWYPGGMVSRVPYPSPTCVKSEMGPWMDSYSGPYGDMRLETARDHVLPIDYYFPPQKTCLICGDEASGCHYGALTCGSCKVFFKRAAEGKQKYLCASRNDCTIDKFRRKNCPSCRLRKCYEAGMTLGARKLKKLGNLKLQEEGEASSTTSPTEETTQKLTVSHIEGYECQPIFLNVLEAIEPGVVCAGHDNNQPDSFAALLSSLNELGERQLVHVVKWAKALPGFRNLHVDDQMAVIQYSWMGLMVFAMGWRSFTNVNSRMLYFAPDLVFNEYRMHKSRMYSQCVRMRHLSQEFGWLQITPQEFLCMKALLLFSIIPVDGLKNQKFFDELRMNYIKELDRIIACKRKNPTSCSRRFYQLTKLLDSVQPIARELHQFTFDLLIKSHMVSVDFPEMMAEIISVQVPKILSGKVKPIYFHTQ
# [6] = target: Histamine H3 receptor (Rattus norvegicus, UniProt Q9QYN8); test: Displacement of [3H]NAMH from rat full length histamine H3 receptor expressed in rat C6 cells; format: cell-based; conditions: read-out: Ki
# [7] = target: T2, Histamine H3 receptor; test: Antagonist activity at human full length histamine H3 receptor expressed in HEK293 cells assessed as inhibition of (R)-alpha-methylhistamine-induced intracellular calcium release by FLIPR; format: functional, cell-based
# [8] = target: Histamine H1 receptor (Homo sapiens, UniProt P35367); test: Displacement of [3H]mepyramine from human histamine H1 receptor; conditions: read-out: Ki
# Chain of Histamine H1 receptor (P35367 whole entry): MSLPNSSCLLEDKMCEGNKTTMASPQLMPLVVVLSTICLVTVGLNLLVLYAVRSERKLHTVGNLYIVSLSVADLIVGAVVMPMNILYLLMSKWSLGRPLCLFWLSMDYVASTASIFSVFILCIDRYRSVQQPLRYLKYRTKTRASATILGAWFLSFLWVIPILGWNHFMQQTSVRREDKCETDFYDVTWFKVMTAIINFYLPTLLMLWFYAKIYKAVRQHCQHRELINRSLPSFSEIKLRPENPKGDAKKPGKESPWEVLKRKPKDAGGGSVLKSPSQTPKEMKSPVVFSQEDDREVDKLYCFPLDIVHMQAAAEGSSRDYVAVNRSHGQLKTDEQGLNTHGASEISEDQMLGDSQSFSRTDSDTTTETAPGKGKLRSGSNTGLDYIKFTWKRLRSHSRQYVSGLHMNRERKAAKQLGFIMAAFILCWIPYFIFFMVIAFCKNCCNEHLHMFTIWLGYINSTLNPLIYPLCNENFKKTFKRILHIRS
# T2 sequence (Q9Y5N1 whole entry): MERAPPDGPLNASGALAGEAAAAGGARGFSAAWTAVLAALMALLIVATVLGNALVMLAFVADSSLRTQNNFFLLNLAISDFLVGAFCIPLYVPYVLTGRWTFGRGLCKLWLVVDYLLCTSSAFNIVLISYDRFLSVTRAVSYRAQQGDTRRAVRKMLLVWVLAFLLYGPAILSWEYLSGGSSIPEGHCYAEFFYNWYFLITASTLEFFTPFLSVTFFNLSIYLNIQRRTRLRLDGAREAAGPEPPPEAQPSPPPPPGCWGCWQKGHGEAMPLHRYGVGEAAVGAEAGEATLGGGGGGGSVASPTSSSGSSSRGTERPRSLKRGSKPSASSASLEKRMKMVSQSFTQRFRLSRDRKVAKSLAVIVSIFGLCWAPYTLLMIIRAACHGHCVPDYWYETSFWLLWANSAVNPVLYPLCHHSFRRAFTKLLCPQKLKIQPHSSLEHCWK
# Chain of Histamine H2 receptor (P25021 whole entry): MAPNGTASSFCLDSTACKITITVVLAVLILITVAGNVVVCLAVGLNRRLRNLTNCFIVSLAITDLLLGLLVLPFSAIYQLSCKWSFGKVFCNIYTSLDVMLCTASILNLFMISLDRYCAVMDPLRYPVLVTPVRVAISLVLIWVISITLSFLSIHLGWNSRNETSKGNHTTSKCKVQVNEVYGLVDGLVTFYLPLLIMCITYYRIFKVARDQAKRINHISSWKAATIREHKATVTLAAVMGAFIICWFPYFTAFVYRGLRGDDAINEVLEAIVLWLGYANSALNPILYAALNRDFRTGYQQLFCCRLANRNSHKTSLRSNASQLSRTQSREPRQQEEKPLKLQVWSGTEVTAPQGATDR
# Chain of Histamine H3 receptor (Rattus norvegicus, UniProt Q9QYN8) (Q9QYN8 whole entry): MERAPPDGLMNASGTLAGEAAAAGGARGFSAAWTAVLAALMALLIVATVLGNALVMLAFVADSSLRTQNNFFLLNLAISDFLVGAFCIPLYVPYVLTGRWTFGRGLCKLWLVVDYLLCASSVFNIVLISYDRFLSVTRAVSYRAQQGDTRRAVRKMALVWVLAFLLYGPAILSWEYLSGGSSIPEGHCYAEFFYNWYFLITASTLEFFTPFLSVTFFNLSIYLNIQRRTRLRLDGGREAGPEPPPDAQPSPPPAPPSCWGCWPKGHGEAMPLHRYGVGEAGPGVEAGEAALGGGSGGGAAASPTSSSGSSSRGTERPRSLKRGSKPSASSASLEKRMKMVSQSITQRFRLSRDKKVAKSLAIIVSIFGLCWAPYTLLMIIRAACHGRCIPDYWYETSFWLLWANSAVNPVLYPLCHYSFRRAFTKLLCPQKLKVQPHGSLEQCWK
structure (smiles),measurement,setting,value
CN[C@@H](C(=O)N(C)[C@H]1CC[C@@]2(C)C(=CC[C@H]3[C@@H]4CC[C@@H]5[C@H](C)N(C)C[C@@]54CC[C@@H]32)C1)C(C)C,Ki,[1],> 30000 nM
same,Phospholipidosis_index,[2],0.42
same,Kb,[3],4 nM
same,Ki,[4],> 10000 nM
same,Ki,[5],> 30000 nM
same,Ki,[6],2.57 nM
same,Kb,[7],4 nM
same,Ki,[8],> 10000 nM
